Measurements: publication PMC7658428, “Pigment Dispersing Factors and Their Cognate Receptors in a Crustacean Model, With New Insights Into Distinct Neurons and Their Functions” (Frontiers in Neuroscience, 2020)
Entries after “also recorded” stand apart in the source; their conditions may differ. Where no end group is shown, it is not given here.

Experiments:
PDHR 43673 = biological target: T1, PDHR 43673 (Carcinus maenas, UniProt A0A7G7MT97); experiment: heterologous aequorin-based receptor luminescence assay, PDHR 43673; assay type: cell-based; conditions: Ca2+ luminescence; for activation of PDHR 43673 (in words): CHO-K1-Aeq-Gα16 cells
T1 sequence (A0A7G7MT97 1-455): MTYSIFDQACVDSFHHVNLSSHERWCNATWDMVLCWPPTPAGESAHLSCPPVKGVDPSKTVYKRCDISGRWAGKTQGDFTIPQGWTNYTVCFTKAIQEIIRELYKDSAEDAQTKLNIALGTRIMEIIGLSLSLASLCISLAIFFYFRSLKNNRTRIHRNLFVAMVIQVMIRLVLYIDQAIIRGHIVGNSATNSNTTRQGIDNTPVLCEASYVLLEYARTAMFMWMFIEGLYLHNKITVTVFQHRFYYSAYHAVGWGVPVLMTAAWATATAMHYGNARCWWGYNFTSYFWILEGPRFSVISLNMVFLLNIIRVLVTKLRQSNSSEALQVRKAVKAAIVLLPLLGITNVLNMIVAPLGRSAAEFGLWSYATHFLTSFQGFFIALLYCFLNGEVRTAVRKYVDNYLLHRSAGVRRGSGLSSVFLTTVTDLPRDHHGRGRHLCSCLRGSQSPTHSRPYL
Procedure: (§1) PCR of these transcripts was performed as described previously ([Alexander J. et al., 2018]; [Alexander J. L. et al., 2018]). Primer sequences for directional cloning and expression are shown in Supplementary Table 1. Correctly sized PCR products were directionally cloned into pcDNA 3.1 D/V5-His-TOPO plasmids (Invitrogen) and the recombinant vector transformed into TOP 10 competent cells (Invitrogen). Positive clones were cultured overnight in selective LB medium with 100 μg ml^–1 ampicillin, plasmids extracted (FastPlasmid Mini Kit, 5Prime, Hamburg, Germany), resequenced to confirm insert orientation and verification (MWG Eurofins, Ebersberg, Germany), and analyzed using Geneious V 9.1.8.
(§2) A heterologous cell–based assay using Chinese hamster ovary cells (CHO-K1) expressing apoaequorin (Perkin Elmer, Boston, MA, […]) and either the Gα16 or Gq subunit (control cells) was used to report intracellular Ca^2+ fluxes after exposure to ligand, as previously detailed ([Alexander J. et al., 2018]; [Alexander J. L. et al., 2018]).
(§3) Peptides used in the luminescence assay were synthetic C. maenas PDH-1-3 and e-PDH, DH-31 (Genecust Dudelange, Luxembourg). Peptides were reconstituted in 30% acetonitrile, aliquoted and dried by vacuum centrifugation and subsequently re-dissolved in BSA medium (DMEM/F, 50 mM HEPES, 0.1% BSA) immediately prior to assay, and dispensed into quadruplicate wells of white 96 well plates (OptiPlate, Perkin Elmer). Cell suspensions (5 × 10^6 cells/ml) were stirred gently and 50 μl amounts were injected into each well using a Mithras LB940 microplate reader (Berthold Technologies, Bad-Wildbad, Germany). Ca^2+ evoked luminescence was recorded for 40 s, followed by cell lysis (injection of 0.3% Triton-X 100 in BSA medium), and light emission recorded for a further 10 s. BSA medium was used for blank measurements (6 replicates per plate), and mock transfections with empty vectors for negative controls. Data reduction and analysis was done using MikroWin v5.18 (Mikrotek Laborsysteme, GmBH, Overath, Germany) and SigmaPlot v.13 (Systat Software Inc., San José CA, United States). Receptor responses were normalized against total Ca^2+ luminescence.

anti-PDH antiserum R171 = experiment: enzyme immunoassay (EIA), cross-reactivity with PDH antiserum R171; assay type: binding; conditions: for dose required to give an absorbance of 1.0 in the EIA: PDH antiserum R171 raised to PDH-1, 1:2000, absorbance at 405 nm
Procedure: Fixed nervous systems were processed for whole mount IHC as previously described ([Webster et al., 2013]). In some, whole eyestalks, including cuticle were taken from postmolt crabs, and routinely fixed (Bouin’s) and processed for paraffin wax embedding; thick serial sections (25–30 μm) were then prepared and processed for IHC. Primary antiserum concentrations [anti-PDH code R171, raised to a thyroglobulin conjugate of PDH-1 as described ([Dircksen et al., 1987]) and characterized ([Wilcockson et al., 2011])] was 1:2000. Secondary antiserum dilution (Alexa Fluor 488 goat anti-rabbit, Invitrogen, Thermo Fisher Scientific) was 1:750. Preparations were mounted on cavity slides using Vectashield (VectorLabs, United Kingdom), cover slipped, sealed with nail varnish, and images collected and Z-stacked at 5 μm intervals on a Zeiss 710 confocal microscope equipped with Zen Black edition software (Carl Zeiss, Jena, Germany).
To identify the neurohormonal PDH inventory, 50 sinus glands (SG) were extracted in 2 M acetic acid and separated by HPLC. Conditions: 4.6 mm × 300 mm Jupiter C18 300 Å column (Phenomenex, Macclesfield, United Kingdom) 40–80% solvent B over 30 min, 1 ml/min, detection at 210 nm, solvent A, 0.11% trifluoroacetic acid (TFA); solvent B 60% acetonitrile, 0.1% TFA. Fractions (1 ml) were dried by vacuum centrifugation and reconstituted in 0.1 M bicarbonate buffer, pH 9.3 immediately prior to immunoassay. Standard PDHs (800 pmol) were subsequently chromatographed to establish SG fractions for further MS analysis. PDH immunoreactive fractions were identified by enzyme immunoassay (EIA). Reconstituted fractions (100 μl) were coated onto high protein binding microplates (Costar 3590, Corning, VWR International, United Kingdom), overnight at 4 °C, followed by washing (3 times with 0.1 M bicarbonate buffer), blocking (0.1% BSA, 1 h RT) and incubation in 100 μl/well 1:2000 anti-PDH in containing 0.1% Tween 20 (PBST), overnight 4 °C. After washing (5 times with PBST), plates were incubated in 1:5000 goat anti-rabbit peroxidase labeled IgG (Vector laboratories, United Kingdom), for 6 h, RT. After washing (5 times with PBST), peroxidase activity was visualized (0.04% ABTS, 0.01% H2O2 (30%), 0.1 M phosphate/citrate buffer, pH 4.0). PDH-1 2500-2.5 fmol per well was used to generate standard curves for quantification. Absorbance at 405 nm was measured on a microplate reader (Mithras LB 940) with data analysis (MikroWin v5.18).

[1] = system: red chromatophores (erythrophores) in the dactyl of the last walking leg; experiment: chromatophore dispersion bioassay in vivo, red chromatophores (erythrophores); parameters: species or system Carcinus maenas; conditions: n = 6 crabs; for dose giving significant dispersion of red chromatophores (erythrophores): 40 min after injection, 10 μl, p < 0.05, Hogben-Slome index; for dispersion of red chromatophores (in words): significant responses to doses of around 0.5 pmol per crab 40 min after injection
Procedure: (§4) The pigmentary effector activity of all PDHs was measured in vivo using small (15–20 mm carapace width) C. maenas, which were light adapted against a white background (300 lux for 1 h). Pigment dispersion of the red and black chromatophores in the dactyl of the last walking leg was observed microscopically and indices of dispersion scored ([Hogben and Slome, 1931]). Peptides were reconstituted in physiological saline ([Saver et al., 1999]) immediately prior to assay, to minimize Met oxidation (storage of reconstituted peptides in frozen saline for extended periods completely abolished biological activity) and injected (10 μl) using hand-drawn, calibrated microcapillaries at 50–0.05 pmol per crab, with saline controls. Chromatophore dispersion indices were scored at 20 min intervals for 1 h.
(§5) FIGURE 9 The effect of PDHs on pigment migration in epidermal chromatophores of the 5th walking leg dactylus of C. maenas. Left panel: erythrophores, right panel: melanophores. Peptides were injected at 0.05–5 pmol per crab for PDH-1, -2, 5–50 pmol per crab for PDH-3, e-PDH, in 10 μl volumes. Mean (n = 6 crabs) chromatophore indices (Hogben-Slome) are indicated. Asterisks indicate significant differences in chromatophore stage (p < 0.05, Wilcoxon sign-rank test) 40 min after injection of peptide, compared to 0 min.

PDHR 41189 = biological target: T2, PDHR 41189 (Carcinus maenas, UniProt A0A7G7MT96); experiment: heterologous aequorin-based receptor luminescence assay, PDHR 41189; assay type: cell-based; conditions: Ca2+ luminescence; for activation of PDHR 41189 (in words): CHO-K1-Aeq-Gα16 cells
T2 sequence (A0A7G7MT96 1-455): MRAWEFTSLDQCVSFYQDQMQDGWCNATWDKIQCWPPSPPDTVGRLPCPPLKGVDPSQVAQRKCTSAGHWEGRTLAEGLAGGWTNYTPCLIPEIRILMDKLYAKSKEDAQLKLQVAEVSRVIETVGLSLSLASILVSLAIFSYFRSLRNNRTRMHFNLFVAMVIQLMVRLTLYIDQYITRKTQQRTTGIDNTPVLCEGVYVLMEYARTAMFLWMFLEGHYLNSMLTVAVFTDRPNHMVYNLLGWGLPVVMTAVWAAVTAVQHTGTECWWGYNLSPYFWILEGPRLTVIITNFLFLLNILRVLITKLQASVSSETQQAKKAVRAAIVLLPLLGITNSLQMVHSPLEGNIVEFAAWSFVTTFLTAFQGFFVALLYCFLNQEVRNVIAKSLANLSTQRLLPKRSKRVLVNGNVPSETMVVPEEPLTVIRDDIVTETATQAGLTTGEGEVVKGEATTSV
Procedure: as §1, §2, §3

[2] = system: black chromatophores (melanophores) in the dactyl of the last walking leg; experiment: chromatophore dispersion bioassay in vivo, black chromatophores (melanophores); parameters: species or system Carcinus maenas; conditions: injected 0.05–5 pmol per crab; n = 6 crabs; melanophores were invariably partially dispersed in all crabs
Procedure: as §4, §5

[3] = system: red and black chromatophores in the dactyl of the last walking leg; experiment: chromatophore dispersion bioassay in vivo, red and black chromatophores; parameters: species or system Carcinus maenas; conditions: n = 6 crabs; for potency in chromatophore dispersion assay (in words): injected 0.05–5 pmol per crab
Procedure: as §4, §5

## NSELINSILGLPKVMNDA-NH2 [PDH-1]
PDHR 43673
  activation of PDHR 43673 (in words): activated by PDH-1 and PDH-2 at low nanomolar doses; also recorded: much more sensitive and larger luminescence responses; also recorded: activated the 43673 receptor in the low nanomolar range; also recorded: pronounced selectivity for PDH-1, -2
anti-PDH antiserum R171; PDH antiserum R171
  specificity of antiserum (in words): rather marked specificity to PDH-1; also recorded: marked selectivity for this peptide
anti-PDH antiserum R171
  dose required to give an absorbance of 1.0 in the EIA: 150 fmol
[1]
  dose giving significant dispersion of red chromatophores (erythrophores): around 0.5 pmol per crab
  dispersion of red chromatophores (in words): effective in dispersing red chromatophores (erythrophores)
PDHR 41189
  activation of PDHR 41189 (in words): high nanomolar concentrations of PDH-1, -2 were needed to result in a luminescent signal
[2]
  dispersion of black chromatophores (melanophores) (in words): also dispersed black chromatophores (melanophores), but to a lesser extent
[3]
  potency in chromatophore dispersion assay (in words): exhibit biological activity in the chromatophore dispersion assay

## NSELINSLLGLSRLMNEA-NH2 [PDH-2]
PDHR 43673
  activation of PDHR 43673 (in words): activated by PDH-1 and PDH-2 at low nanomolar doses; also recorded: much more sensitive and larger luminescence responses; also recorded: activated the 43673 receptor in the low nanomolar range; also recorded: pronounced selectivity for PDH-1, -2
anti-PDH antiserum R171
  dose required to give an absorbance of 1.0 in the EIA: > 10,000 fmol
[1]
  dose giving significant dispersion of red chromatophores (erythrophores): around 0.5 pmol per crab
  dispersion of red chromatophores (in words): effective in dispersing red chromatophores (erythrophores)
[1]; lowest dose, 50 fmol per crab
  dispersion of red chromatophores at the lowest dose (in words): some pigment dispersion was observed at the lowest dose (50 fmol per crab) although this was transient and statistically not significant
PDHR 41189
  activation of PDHR 41189 (in words): high nanomolar concentrations of PDH-1, -2 were needed to result in a luminescent signal
[2]
  dispersion of black chromatophores (melanophores) (in words): also dispersed black chromatophores (melanophores), but to a lesser extent
[3]
  potency in chromatophore dispersion assay (in words): exhibit biological activity in the chromatophore dispersion assay; also recorded: very potent in the chromatophore dispersion assay

## NSELINTLLGSQDLGNMRNA-NH2 [e-PDH]
PDHR 43673
  activation of PDHR 43673 (in words): micromolar concentrations of PDH-3 and e-PDH were necessary to activate this receptor; also recorded: even micromolar concentrations of PDH-3 and e-PDH were needed to produce rather weak luminescence responses
anti-PDH antiserum R171
  dose required to give an absorbance of 1.0 in the EIA: 8000 fmol
PDHR 41189
  activation of PDHR 41189 (in words): activated by PDH-3 and an extended 20 residue e-PDH; also recorded: activated by PDH-3 and e-PDH at low nanomolar concentrations; also recorded: low nanomolar concentrations of PDH-3 and e-PDH activated this receptor; also recorded: preferentially activated by PDH-3 and e-PDH
[3]; 5–50 pmol per crab, highest dose 50 pmol per crab
  chromatophore-dispersing activity (in words): entirely without chromatophore-dispersing activity, even at the highest dose used

## PDH-3: synthetic C. maenas pigment dispersing hormone 3, 18 residues, C-terminal Ala-amide; MN602309
PDHR 43673; approximate EC50, CHO-K1-Aeq-Gα16 cells transiently expressing PDHR 43673, means of N = 4, normalized against maximum luminescence responses for PDH-1
  EC50: 10 µM
PDHR 41189; approximate EC50, CHO-K1-Aeq-Gα16 cells transiently expressing PDHR 41189, means of N = 4, normalized against maximum luminescence responses for PDH-1
  EC50: 0.025 µM

## diuretic hormone-31 [DH-31, reference compound]
PDHR 43673
  activation of PDHR 43673 (in words): Neither receptor was activated by DH-31
PDHR 41189
  activation of PDHR 41189 (in words): Neither receptor was activated by DH-31
